In patent US11865103B2, “Methods of treating disorders associated with glycosylation defective proteins” (CASE WESTERN RESERVE UNIVERSITY, priority 2016, dated 2024):

How the values were obtained:
[1] = tested on: hCLRN1^N48K-YFP; clrn1^KO/KO larvae; assay: Survival rate of hCLRN1^N48K-YFP; clrn1^KO/KO zebrafish larvae under ART treatment, 6.5 to 27 dpf; format: in vivo; conditions: for Survival rate and swimming behavior beyond 25 dpf: untreated 5%
Experimental: (§1) The startle response and swimming behavior of the clrn1^+/+ larvae, clrn1^KO/KO larvae, hCLRN1-YFP; clrn1^KO/KO larvae and hCLRN1^N48K-YFP; clrn1^KO/KO larvae were recorded at 6.5dpf, 10.5dpf, 16.5dpf and 27dpf as described earlier (Table-1). The extracellular microphonics potentials were recorded at 6dpf to confirm the hair cell function in these humanized zebrafish models for hCLRN1 (hCLRN1-YFP; clrn1^KO/KO larvae larvae) and USH3-CLRN1^N48Kmutant (hCLRN1^N48K-YFP; clrn1^KO/KO larvae) as described earlier (FIG. 5).
(§2) To verify the degree of overall rescue in swimming behavior (hair cell function) and prolongation of life span by ART treatment in the hCLRN1^N48K-YFP; clrn1^KO/KO zebrafish larvae, survival rate, swimming behavior and startle response were observed longitudinally from 6.5 to 27 dpf (Table 1). For this rescue experiment, we followed two regimens of ART treatment. Regimen I, 35 larvae from hCLRN1^N48K-YFP; clrn1^KO/KO genotype were treated with 0.4 uM ART from 3 to 7 dpf (5 days of treatment during inner ear development and hair cell maturation). Regimen II, 20 larvae from hCLRN1^N48K-YFP; clrn1^KO/KO genotype were treated with 0.4 uM ART from 3 to 12 dpf (10 days of treatment overlapping development and post-development of inner ear anatomy and hair cell maturation). At 6.5 dpf, the swimming behavior and startle response of hCLRN1^N48K-YFP; clrn1^KO/KO larvae from ART treatment regimen I and II, were indistinguishable from that of clrn1^+/+ and hCLRN1-YFP; clrn1^KO/KO larvae. About 75% (Regimen I+II: 41 larvae) of ART treated hCLRN1^N48K-YFP; clrn1^KO/KO larvae had clrn1^+/+ equivalent startle response. In regimen I and II, the survival rate and swimming behavior of hCLRN1^N48K-YFP; clrn1^KO/KO larvae beyond 25 dpf shown significant improvement from 5% in untreated hCLRN1^N48K-YFP; clrn1^KO/KO larvae to 40% (n=14) and 45% (n=[…]), respectively. […] Overall, result confirms that ART is not only able to correct the trafficking defect of hCLRN1^N48K protein, but also able to help in normal hair cell functioning of hair cells from hCLRN1^N48K-YFP; clrn1^KO/KO zebrafish and delay onset progressive loss of hair cell function.

[2] = tested on: hCLRN1^N48K-YFP; clrn1^KO/KO larvae; assay: Startle response and swimming/balance behavior of ART treated hCLRN1^N48K-YFP; clrn1^KO/KO larvae; format: in vivo, zebrafish
Experimental: as §1
At 6.5 dpf, clrn1^+/+ larvae often tend to swim towards the middle or closer to surface of the water (E3 medium) in the Petri dish, and escape swiftly from the field of view when startled (by tapping the Petri dish with a metal probe). At 6.5 dpf, hCLRN1^N48K-YFP; clrn1^KO/KO larvae (n=40) were hard to distinguish from clrn1^+/+ larvae in a Petri dish when viewed from the top. […] To monitor hair cell function in the hCLRN1^N48K-YFP; clrn1^KO/KO zebrafish, larvae from several clutch were observed longitudinally from 6.5 to 27 dpf for survival, swimming behavior and startle response (Table 1). […] However, 5% of the hCLRN1^N48K-YFP; clrn1^KO/KO zebrafish do survive long enough to be able to breed like its clrn1^+/+ counterpart. […] In this model, hair cells expressing hCLRN1^N48K retained hair bundle structure and function for a longer duration than clrn1^KO/KO hair cells, consistent with previous report ‘USH3-CLRN1Y176X individuals develop severe hearing loss earlier in life compared with CLRN1^N48K individuals’. This new model for inner ear disorder associated with hCLRN1^N48K mutation will be useful to identify therapeutic agents to prevent progressive loss of hair cell function in USH3-CLRN1^N48K mutant individuals.
as §2

[3] = Regimen I: 0.4 μM ART from 3 to 7 dpf, 6.5 dpf
[4] = Regimen I: 0.4 μM ART from 3 to 7 dpf, 10.5 dpf
[5] = Regimen I: 0.4 μM ART from 3 to 7 dpf, 15 dpf
[6] = Regimen I: 0.4 μM ART from 3 to 7 dpf, 16.5 dpf
[7] = Regimen I: 0.4 μM ART from 3 to 7 dpf, 27 dpf
[8] = Regimen II: 0.4 μM ART from 3 to 12 dpf, 6.5 dpf
[9] = Regimen II: 0.4 μM ART from 3 to 12 dpf, 10.5 dpf
[10] = Regimen II: 0.4 μM ART from 3 to 12 dpf, 15 dpf
[11] = Regimen II: 0.4 μM ART from 3 to 12 dpf, 16.5 dpf
[12] = Regimen II: 0.4 μM ART from 3 to 12 dpf, 27 dpf
[13] = Regimen I: 0.4 μM ART from 3 to 7 dpf

**Q.** How did the Survival rate [1, 3] turn out when `C[C@@H]1CC[C@H]2[C@@H](C)C(=O)O[C@@H]3O[C@@]4(C)CC[C@@H]1[C@]32OO4` [ART, Artemisinin] was run?
**A.** The Survival rate was “(100%)”.

**Q.** What about the “Survival rate, number of surviving larvae” value (shortened to “Survival rate, number”) [1, 3] of the same molecule?
**A.** Its value is 35.

**Q.** And the Survival rate [1, 4]?
**A.** Its Survival rate is “(85.71%)”.

**Q.** What about the “Survival rate, number” value [1, 4] of the same molecule?
**A.** The value was 30.

**Q.** What about the Survival rate [1, 5] of the same molecule?
**A.** The Survival rate was “(68.57%)”.

**Q.** And the “Survival rate, number” value [1, 5]?
**A.** The value was 24.

**Q.** What about the Survival rate [1, 6] of the same molecule?
**A.** The Survival rate was “(54.29%)”.

**Q.** What about the “Survival rate, number” value [1, 6] of the same molecule?
**A.** Its value is 19.

**Q.** And the Survival rate [1, 7]?
**A.** The Survival rate was “(40%)”.

**Q.** What about the “Survival rate, number” value [1, 7] of the same molecule?
**A.** The value was 14.

**Q.** What about the “Survival rate and swimming behavior beyond 25 dpf” value ([1]; Regimen I: 0.4 uM ART from 3 to 7 dpf) of the same molecule?
**A.** Its value is 40%.

**Q.** What about the Survival rate [1, 8] of the same molecule?
**A.** Its Survival rate is “(100%)”.

**Q.** What about the “Survival rate, number” value [1, 8] of the same molecule?
**A.** The value was 20.

**Q.** And the Survival rate [1, 9]?
**A.** Its Survival rate is “(90%)”.

**Q.** What about the “Survival rate, number” value [1, 9] of the same molecule?
**A.** Its value is 18.

**Q.** What about the Survival rate [1, 10] of the same molecule?
**A.** The Survival rate was “(65%)”.

**Q.** What about the “Survival rate, number” value [1, 10] of the same molecule?
**A.** The value was 13.

**Q.** And the Survival rate [1, 11]?
**A.** The Survival rate was “(65%)”.

**Q.** And the “Survival rate, number” value [1, 11]?
**A.** The value was 13.

**Q.** And the Survival rate [1, 12]?
**A.** The Survival rate was “(45%)”.

**Q.** What about the “Survival rate, number” value [1, 12] of the same molecule?
**A.** Its value is 9.

**Q.** What about the “Survival rate and swimming behavior beyond 25 dpf” value ([1]; Regimen II: 0.4 uM ART from 3 to 12 dpf) of the same molecule?
**A.** The value was 45%.

**Q.** And the “Swimming behavior and startle response compared with clrn1^+/+ and hCLRN1-YFP; clrn1^KO/KO larvae” value ([2]; ART treatment regimen I and II, 6.5 dpf)?
**A.** The value was “indistinguishable”.

**Q.** What about the “Larvae with clrn1^+/+ equivalent startle response” value ([2]; Regimen I+II, 0.4 uM ART, 6.5 dpf) of the same molecule?
**A.** The value was “About 75%”.

**Q.** What about the “% of abnormal swimming-balance (6.5 dpf)” value [2, 13] of the same molecule?
**A.** The value was 25.71%.

**Q.** And the “% of normal swimming-balance (>25 dpf)” value [2, 13]?
**A.** Its value is 40%.

**Q.** What about the “% showing startle response at 6.5 dpf” value [2, 13] of the same molecule?
**A.** The value was 100%.

**Q.** What about the “% of normal swimming-balance (>25 dpf)” value ([2]; Regimen II: 0.4 μM ART from 3 to 12 dpf) of the same molecule?
**A.** Its value is 45%.
